Consider 1 compound from patent US20050164370A1 (priority 2003, published 2005).

Assay [1] has as its target cytokinin receptor CRE1 (Arabidopsis thaliana, UniProt Q9C5U0, S567G/T1018A). The conditions noted are these: TM182-CRE1, DOLU+Glu agar, 1 nM to 100 μM tested, 30° C. for 30 hours. Here is the method: (§1) A culture solution 10 μl (about 800 clones of yeast) of the transformed cells TM182-CRE1, TM182-AHK2, TM182-AHK2Δ and TM182-AHK3 produced by the example 12 was spotted on DOLU+Glu agar media containing 10 μM of trans-zeatin and cultured at 30° C. for 30 hours. After incubation, the growth state of the transformed cells was observed and photographed by a digital camera.
(§2) Culture solutions of the transformed cells TM182-CRE1, TM182-AHK2Δ and TM182-AHK2 produced by the reference example 1 were spotted on DOLU+Glu agar media containing cytokinin in a variety of concentrations (1 nM, 10 nM, 100 nM, 1 μM, 10 μM, 100 μM) and cultured at 30° C. for 30 hours. After incubation, the growth state of the transformed cells was observed and photographed by a digital camera.

For assay [2], the target named is T1, cytokinin receptor AHK2 (Arabidopsis thaliana, UniProt Q9C5U2).
T1 sequence (Q9C5U2 1-1176): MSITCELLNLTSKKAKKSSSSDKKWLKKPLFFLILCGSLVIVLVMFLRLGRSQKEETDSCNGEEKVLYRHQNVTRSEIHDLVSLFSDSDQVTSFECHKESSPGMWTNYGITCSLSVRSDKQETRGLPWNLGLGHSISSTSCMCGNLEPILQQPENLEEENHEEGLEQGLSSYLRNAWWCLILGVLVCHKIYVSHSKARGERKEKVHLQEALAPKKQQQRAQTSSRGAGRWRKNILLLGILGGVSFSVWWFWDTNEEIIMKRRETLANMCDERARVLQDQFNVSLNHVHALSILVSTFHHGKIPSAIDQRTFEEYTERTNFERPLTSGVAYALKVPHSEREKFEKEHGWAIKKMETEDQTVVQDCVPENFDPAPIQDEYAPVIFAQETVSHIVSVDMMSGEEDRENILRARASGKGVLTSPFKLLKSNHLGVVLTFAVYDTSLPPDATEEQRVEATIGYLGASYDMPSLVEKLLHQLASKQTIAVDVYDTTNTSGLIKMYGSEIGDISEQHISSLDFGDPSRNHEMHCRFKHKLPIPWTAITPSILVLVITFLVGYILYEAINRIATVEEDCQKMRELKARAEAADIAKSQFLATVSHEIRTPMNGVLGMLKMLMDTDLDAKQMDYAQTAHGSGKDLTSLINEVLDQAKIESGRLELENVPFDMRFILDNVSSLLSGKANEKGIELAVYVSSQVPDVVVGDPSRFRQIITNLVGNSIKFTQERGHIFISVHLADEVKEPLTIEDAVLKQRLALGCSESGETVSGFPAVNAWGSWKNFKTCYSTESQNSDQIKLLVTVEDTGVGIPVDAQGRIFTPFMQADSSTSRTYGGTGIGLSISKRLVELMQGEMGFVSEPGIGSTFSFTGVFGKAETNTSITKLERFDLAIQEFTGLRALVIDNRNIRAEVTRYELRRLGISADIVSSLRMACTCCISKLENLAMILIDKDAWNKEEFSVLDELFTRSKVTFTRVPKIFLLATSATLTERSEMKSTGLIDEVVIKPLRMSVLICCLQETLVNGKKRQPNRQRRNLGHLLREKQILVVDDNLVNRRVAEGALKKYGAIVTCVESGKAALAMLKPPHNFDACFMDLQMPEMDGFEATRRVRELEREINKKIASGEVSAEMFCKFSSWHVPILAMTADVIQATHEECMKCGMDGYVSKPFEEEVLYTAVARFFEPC
The following applies: TM182-AHK2, DOLU+Glu agar, 1 nM to 100 μM tested, 30° C. for 30 hours. Here is the method:
as §1, §2

Assay [3] addresses T2, cytokinin receptor AHK2Δ (Arabidopsis thaliana, UniProt Q9C5U2).
T2 sequence (Q9C5U2 196-1176): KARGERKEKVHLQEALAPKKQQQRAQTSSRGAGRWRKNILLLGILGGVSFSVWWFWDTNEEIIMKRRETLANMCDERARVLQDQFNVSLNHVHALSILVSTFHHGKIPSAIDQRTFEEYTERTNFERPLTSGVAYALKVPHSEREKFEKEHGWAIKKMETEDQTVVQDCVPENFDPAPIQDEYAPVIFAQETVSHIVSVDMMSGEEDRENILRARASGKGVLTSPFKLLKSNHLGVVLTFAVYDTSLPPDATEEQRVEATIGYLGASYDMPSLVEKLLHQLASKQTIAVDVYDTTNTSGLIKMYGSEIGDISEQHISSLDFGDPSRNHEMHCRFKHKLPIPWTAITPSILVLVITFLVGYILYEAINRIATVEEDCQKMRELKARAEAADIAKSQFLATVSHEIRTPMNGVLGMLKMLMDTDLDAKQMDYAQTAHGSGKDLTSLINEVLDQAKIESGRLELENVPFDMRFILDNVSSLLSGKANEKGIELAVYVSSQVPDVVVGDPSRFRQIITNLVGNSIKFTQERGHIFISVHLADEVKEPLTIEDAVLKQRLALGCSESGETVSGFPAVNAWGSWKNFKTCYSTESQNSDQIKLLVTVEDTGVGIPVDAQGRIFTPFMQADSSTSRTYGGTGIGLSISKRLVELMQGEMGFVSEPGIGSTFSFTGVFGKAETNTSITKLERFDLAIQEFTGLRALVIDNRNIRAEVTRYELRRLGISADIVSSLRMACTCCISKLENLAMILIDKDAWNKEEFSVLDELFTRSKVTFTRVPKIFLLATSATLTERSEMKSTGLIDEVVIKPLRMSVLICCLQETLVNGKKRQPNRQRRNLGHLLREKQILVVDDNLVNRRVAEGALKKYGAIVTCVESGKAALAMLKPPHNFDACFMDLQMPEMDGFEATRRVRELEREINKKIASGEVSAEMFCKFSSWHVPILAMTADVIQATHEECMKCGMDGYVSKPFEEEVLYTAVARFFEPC
The conditions noted are these: TM182-AHK2Δ, DOLU+Glu agar, 1 nM to 100 μM tested, 30° C. for 30 hours. On the procedure: as §1, §2

Sequence of cytokinin receptor CRE1 (Q9C5U0 24-1080 S567G/T1018A): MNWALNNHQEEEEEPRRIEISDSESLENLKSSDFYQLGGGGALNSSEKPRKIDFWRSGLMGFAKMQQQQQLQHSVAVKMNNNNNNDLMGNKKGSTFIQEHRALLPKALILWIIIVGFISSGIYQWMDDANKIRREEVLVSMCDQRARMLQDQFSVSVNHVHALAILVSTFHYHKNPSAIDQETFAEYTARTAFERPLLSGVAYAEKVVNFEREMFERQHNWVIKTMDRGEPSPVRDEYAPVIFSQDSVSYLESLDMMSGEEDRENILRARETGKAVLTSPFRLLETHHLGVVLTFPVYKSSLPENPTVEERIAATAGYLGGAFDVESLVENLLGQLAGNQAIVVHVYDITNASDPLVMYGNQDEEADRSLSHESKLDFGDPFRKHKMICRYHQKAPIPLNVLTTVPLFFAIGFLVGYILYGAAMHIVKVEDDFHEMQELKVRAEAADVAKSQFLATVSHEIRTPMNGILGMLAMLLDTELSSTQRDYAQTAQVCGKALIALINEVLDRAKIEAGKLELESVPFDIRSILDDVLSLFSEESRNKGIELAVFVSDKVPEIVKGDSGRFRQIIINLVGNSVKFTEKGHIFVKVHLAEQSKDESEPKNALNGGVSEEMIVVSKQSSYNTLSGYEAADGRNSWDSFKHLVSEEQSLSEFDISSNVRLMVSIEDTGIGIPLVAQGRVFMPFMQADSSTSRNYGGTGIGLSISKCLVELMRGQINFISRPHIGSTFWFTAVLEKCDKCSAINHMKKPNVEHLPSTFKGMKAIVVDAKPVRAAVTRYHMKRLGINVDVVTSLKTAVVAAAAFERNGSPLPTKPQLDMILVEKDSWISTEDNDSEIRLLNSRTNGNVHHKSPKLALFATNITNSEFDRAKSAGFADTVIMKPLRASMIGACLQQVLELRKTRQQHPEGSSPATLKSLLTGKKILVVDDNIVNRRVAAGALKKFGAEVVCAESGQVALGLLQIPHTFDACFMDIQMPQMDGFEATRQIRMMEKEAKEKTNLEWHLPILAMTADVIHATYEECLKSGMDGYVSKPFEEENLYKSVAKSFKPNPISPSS

For the compound `C/C(=C/CNc1ncnc2nc[nH]c12)CO` [cis-zeatin], the figures for the “lowest observed supply concentration in which the transformed cells could be grown” value in assay [1], in assay [2] and in assay [3] were “no growth”, 10 µM and 1 µM, respectively.
